In the NIST ThermoML archive (doi:10.1021/je049842u):

Tests used:
[1] = compressibility factor (dimensionless); conditions: Gas, Burnett expansion method
[2] = Liquid, Closed cell (Static) method

[N-]=[N+]=O [nitrous oxide]
[1]
Conditions | compressibility factor
283.5 K, 207.4 kPa | 0.9884
283.5 K, 308.1 kPa | 0.9809
283.5 K, 456.3 kPa | 0.9705
283.5 K, 672.4 kPa | 0.9554
283.5 K, 983.6 kPa | 0.9337
283.5 K, 1422.1 kPa | 0.9019
283.5 K, 2020 kPa | 0.8558
283.5 K, 2788.1 kPa | 0.7891
283.5 K, 3680.3 kPa | 0.6958
283.51 K, 170.6 kPa | 0.9917
283.51 K, 253.7 kPa | 0.9848
283.51 K, 376.3 kPa | 0.9761
283.51 K, 556.2 kPa | 0.9636
283.51 K, 816.9 kPa | 0.9456
283.51 K, 1188.9 kPa | 0.9193
283.51 K, 1705.3 kPa | 0.8809
283.51 K, 2390.6 kPa | 0.825
283.51 K, 3232.1 kPa | 0.7451
304.09 K, 194 kPa | 0.99
304.09 K, 288.7 kPa | 0.9846
304.09 K, 429.3 kPa | 0.9779
304.09 K, 635.2 kPa | 0.9666
304.09 K, 935.6 kPa | 0.9511
304.09 K, 1366.6 kPa | 0.9281
304.09 K, 1968.7 kPa | 0.8932
304.09 K, 2781.3 kPa | 0.843
304.09 K, 3812.3 kPa | 0.772
304.1 K, 204 kPa | 0.9912
304.1 K, 303.6 kPa | 0.9853
304.1 K, 450.8 kPa | 0.9772
304.1 K, 666.7 kPa | 0.9655
304.1 K, 980.2 kPa | 0.9484
304.1 K, 1428.5 kPa | 0.9233
304.1 K, 2054.5 kPa | 0.8871
304.1 K, 2893.4 kPa | 0.8347
304.1 K, 3945.6 kPa | 0.7604
314.41 K, 193.8 kPa | 0.9927
314.41 K, 288.6 kPa | 0.9878
314.41 K, 429 kPa | 0.9808
314.41 K, 635.5 kPa | 0.9706
314.41 K, 936.8 kPa | 0.9558
314.41 K, 1371.3 kPa | 0.9347
314.41 K, 1984.4 kPa | 0.9036
314.41 K, 2822.9 kPa | 0.8587
314.41 K, 3911.4 kPa | 0.7949
314.42 K, 201.1 kPa | 0.992
314.42 K, 299.5 kPa | 0.9869
314.42 K, 445.1 kPa | 0.9798
314.42 K, 659.3 kPa | 0.9696
314.42 K, 971.5 kPa | 0.9545
314.42 K, 1420.6 kPa | 0.9324
314.42 K, 2052.9 kPa | 0.9001
314.42 K, 2915.1 kPa | 0.8539
314.42 K, 4027.4 kPa | 0.7881
324.78 K, 182.9 kPa | 0.9923
324.78 K, 272.8 kPa | 0.9888
324.78 K, 406.1 kPa | 0.9831
324.78 K, 602.6 kPa | 0.9746
324.78 K, 891.4 kPa | 0.9631
324.78 K, 1309.1 kPa | 0.9449
324.78 K, 1904.7 kPa | 0.9185
324.78 K, 2731.6 kPa | 0.88
324.78 K, 3833.8 kPa | 0.8251
324.79 K, 183.9 kPa | 0.9933
324.79 K, 274.1 kPa | 0.9891
324.79 K, 407.9 kPa | 0.9833
324.79 K, 605.3 kPa | 0.9748
324.79 K, 894.5 kPa | 0.9623
324.79 K, 1313.6 kPa | 0.9441
324.79 K, 1910.8 kPa | 0.9174
324.79 K, 2740 kPa | 0.8789
324.79 K, 3845.5 kPa | 0.824
335.16 K, 175.4 kPa | 0.9949
335.16 K, 261.7 kPa | 0.9913
335.16 K, 389.8 kPa | 0.9864
335.16 K, 579.2 kPa | 0.9792
335.16 K, 857.6 kPa | 0.9686
335.16 K, 1263.2 kPa | 0.9531
335.16 K, 1845.9 kPa | 0.9304
335.16 K, 2665.8 kPa | 0.8977
335.16 K, 3777.8 kPa | 0.8498
335.18 K, 188.5 kPa | 0.9942
335.18 K, 281 kPa | 0.9902
335.18 K, 418.3 kPa | 0.9847
335.18 K, 621.3 kPa | 0.9772
335.18 K, 919.2 kPa | 0.9658
335.18 K, 1352.3 kPa | 0.9492
335.18 K, 1972.3 kPa | 0.9248
335.18 K, 2839.6 kPa | 0.8895
335.18 K, 4008.4 kPa | 0.8389
345.51 K, 185.8 kPa | 0.9943
345.51 K, 277.2 kPa | 0.991
345.51 K, 413 kPa | 0.9863
345.51 K, 613.8 kPa | 0.9794
345.51 K, 909.5 kPa | 0.9693
345.51 K, 1340.3 kPa | 0.9543
345.51 K, 1960.2 kPa | 0.9324
345.51 K, 2834.5 kPa | 0.9008
345.51 K, 4029 kPa | 0.8553
345.58 K, 184.6 kPa | 0.9943
345.58 K, 275.5 kPa | 0.9911
345.58 K, 410.4 kPa | 0.9865
345.58 K, 610.1 kPa | 0.9797
345.58 K, 903.9 kPa | 0.9697
345.58 K, 1332.3 kPa | 0.9548
345.58 K, 1949.3 kPa | 0.9332
345.58 K, 2819.4 kPa | 0.9017
345.58 K, 4008.9 kPa | 0.8565
364.36 K, 207.6 kPa | 0.9928
364.36 K, 241.7 kPa | 0.9925
364.36 K, 309.9 kPa | 0.9907
364.36 K, 360.3 kPa | 0.9889
364.36 K, 462 kPa | 0.9871
364.36 K, 536.5 kPa | 0.9843
364.36 K, 687.1 kPa | 0.9812
364.36 K, 797.5 kPa | 0.9779
364.36 K, 1018.5 kPa | 0.9723
364.36 K, 1179.8 kPa | 0.967
364.36 K, 1502.7 kPa | 0.9588
364.36 K, 1737 kPa | 0.9517
364.36 K, 2201.5 kPa | 0.9389
364.36 K, 2535.6 kPa | 0.9285
364.36 K, 3191.1 kPa | 0.9097
364.36 K, 3655.3 kPa | 0.8947
364.36 K, 4555 kPa | 0.8679
364.36 K, 5179.9 kPa | 0.8475

[2]
Conditions | vapor or sublimation pressure [kPa]
219.24 K | 554.7
222.28 K | 626.3
223.31 K | 652.8
227.32 K | 759.6
227.36 K | 760.6
232.37 K | 912.1
232.43 K | 915.4
237.49 K | 1092.9
242.57 K | 1294.7
247.65 K | 1521.9
252.73 K | 1777
257.8 K | 2061.8
257.87 K | 2065.4
262.9 K | 2379
262.95 K | 2381.8
267.98 K | 2730.6
268.03 K | 2734
273.08 K | 3119.9
